Test results as given in publication PMC10794144, “A novel antibiotic class targeting the lipopolysaccharide transporter” (Nature, 2024).
Like-named read-outs stand apart in the source and are kept apart here.

Tested on: A. baumannii

CN1C(=O)[C@H](CCCCN)NC(=O)[C@H](CCCN)NCc2cccnc2Sc2cccc(-c3ccc(C(=O)O)cc3)c2CNC(=O)[C@@H]1Cc1c[nH]c2ccccc12 [zosurabalpin]
MIC_value (ATCC 19606 clone 1C4, run AB19606_3280_HS, evolved in HS_MHB): 8 µM
MIC_value (ATCC 19606 clone 2C1, run AB19606_3280_HS, evolved in HS_MHB): 64 µM
MIC_value (ATCC 19606 clone 2C3, run AB19606_3280_HS, evolved in HS_MHB): 64 µM
MIC_value (ATCC 19606 clone 2C6, run AB19606_3280_HS, evolved in HS_MHB): 16 µM
MIC_value (ATCC 19606 clone 2E1, run AB19606_3280_MHB, evolved in MHB): 16 µM
MIC_value (ATCC 19606 clone 2E2, run AB19606_3280_MHB, evolved in MHB): 16 µM
MIC_value (ATCC 19606 clone 2E3, run AB19606_3280_MHB, evolved in MHB): 8 µM
MIC_value (ATCC 19606 clone 2E6, run AB19606_3280_MHB, evolved in MHB): 16 µM
MIC_value (ATCC 19606 clone 3D1, run AB19606_3280_MHB, evolved in MHB): 2 µM
MIC_value (ATCC 19606 clone 3F1, run AB19606_3280_MHB, evolved in MHB): 64 µM
MIC_value (ATCC 19606 clone 4C1, run AB19606_3280_HS, evolved in HS_MHB): 4 µM
MIC_value (ATCC 19606 clone 4C2, run AB19606_3280_HS, evolved in HS_MHB): 16 µM
MIC_value (ATCC 19606 clone 4C7, run AB19606_3280_HS, evolved in HS_MHB): 64 µM
MIC_value (ATCC 19606 clone 5C4, run AB19606_3280_HS, evolved in HS_MHB): 32 µM
MIC_value (ATCC 19606 clone 5E2, run AB19606_3280_HS, evolved in HS_MHB): 16 µM
MIC_value (ATCC 19606 clone 5E3, run AB19606_3280_HS, evolved in HS_MHB): 8 µM
MIC_value (ATCC 19606 clone 5E5, run AB19606_3280_HS, evolved in HS_MHB): <2 µM
MIC_value (ATCC 19606 clone 5E6, run AB19606_3280_HS, evolved in HS_MHB): 16 µM
MIC_value (ATCC 19606 clone 5E7, run AB19606_3280_HS, evolved in HS_MHB): 8 µM
MIC_value (ATCC 19606 clone 5F1, run AB19606_3280_MHB, evolved in MHB): >128 µM
MIC_value (ATCC 19606 clone 5F2, run AB19606_3280_MHB, evolved in MHB): 16 µM
MIC_value (ATCC 19606 clone 5F3, run AB19606_3280_MHB, evolved in MHB): 16 µM
MIC_value (ATCC 19606 clone 6E1, run AB19606_3280_HS, evolved in HS_MHB): 8 µM
MIC_value (ROB08705 clone 1C1, run ABR05_3280_HS, evolved in HS_MHB): 4 µM
MIC_value (ROB08705 clone 2C1, run ABR05_3280_MHB, evolved in MHB): >32 µM
MIC_value (ROB08705 clone 2D1, run ABR05_3280_MHB, evolved in MHB): 8 µM
MIC_value (ROB08705 clone 3B1, run ABR05_3280_HS, evolved in HS_MHB): 4 µM
MIC_value (ROB08705 clone 3B1, run ABR05_3280_MHB, evolved in MHB): 8 to 16 µM
MIC_value (ROB08705 clone 3B3, run ABR05_3280_HS, evolved in HS_MHB): 4 to 8 µM
MIC_value (ROB08705 clone 3B4, run ABR05_3280_HS, evolved in HS_MHB): 16 µM
MIC_value (ROB08705 clone 3B5, run ABR05_3280_HS, evolved in HS_MHB): 2 µM
MIC_value (ROB08705 clone 3B6, run ABR05_3280_HS, evolved in HS_MHB): 1 µM
MIC_value (ROB08705 clone 4B1, run ABR05_3280_HS, evolved in HS_MHB): 128 µM
MIC_value (ROB08705 clone 4B2, run ABR05_3280_HS, evolved in HS_MHB): 4 µM
MIC_value (ROB08705 clone 4D1, run ABR05_3280_MHB, evolved in MHB): 4 µM
MIC_value (ROB08705 clone 5C2, run ABR05_3280_HS, evolved in HS_MHB): 4 µM
MIC_value (ROB08705 clone 5C3, run ABR05_3280_HS, evolved in HS_MHB): 32 µM
MIC_value (ROB08705 clone 5C5, run ABR05_3280_HS, evolved in HS_MHB): 8 µM
MIC_value (ROB08706 clone 1D1, run ABR06_3280_MHB, evolved in MHB): 32 to 64 µM
MIC_value (ROB08706 clone 1E1, run ABR06_3280_HS, evolved in HS_MHB): 4 to 8 µM
MIC_value (ROB08706 clone 1E2, run ABR06_3280_HS, evolved in HS_MHB): 64 µM
MIC_value (ROB08706 clone 2C1, run ABR06_3280_MHB, evolved in MHB): 32 µM
MIC_value (ROB08706 clone 2C3, run ABR06_3280_MHB, evolved in MHB): 4 µM
MIC_value (ROB08706 clone 2D1, run ABR06_3280_HS, evolved in HS_MHB): 2 µM
MIC_value (ROB08706 clone 2D5, run ABR06_3280_HS, evolved in HS_MHB): 4 µM
MIC_value (ROB08706 clone 2D6, run ABR06_3280_HS, evolved in HS_MHB): 4 µM
MIC_value (ROB08706 clone 2D7, run ABR06_3280_HS, evolved in HS_MHB): 2 µM
MIC_value (ROB08706 clone 2E1, run ABR06_3280_HS, evolved in HS_MHB): 32 µM
MIC_value (ROB08706 clone 3B3, run ABR06_3280_MHB, evolved in MHB): 4 µM
MIC_value (ROB08706 clone 3E1, run ABR06_3280_HS, evolved in HS_MHB): 4 µM
MIC_value (ROB08706 clone 4D1, run ABR06_3280_MHB, evolved in MHB): 8 to 16 µM
MIC_value (ROB08706 clone 4D2, run ABR06_3280_MHB, evolved in MHB): 4 to 8 µM
MIC_value (ROB08706 clone 4E1, run ABR06_3280_HS, evolved in HS_MHB): 4 µM
MIC_value (ROB08706 clone 5C1, run ABR06_3280_MHB, evolved in MHB): 4 µM
MIC_value (ROB08706 clone 5D3, run ABR06_3280_MHB, evolved in MHB): 4 to 8 µM
